The values that follow are results of earlier work, collected in patent publication US20190156929A1, “METHODS OF IMPROVING PATIENT COMPLIANCE TO TREAT CONTRAST-INDUCED INJURY” (Saghmos Therapeutics, Inc., priority 2017, published 2019).

The subject of this data set is contrast-induced nephropathy in patients undergoing coronary angiography/angioplasty. Particulars: four published Phase 2 trials; compared with isotonic saline; patients e.g. with high serum creatinine levels.

As to `COc1ccc(CN2CCNCC2)c(OC)c1OC` [Trimetazidine], the “reduction of the risk of contrast-induced nephropathy (CIN)” value is “more effective than isotonic saline in reducing the risk of contrast-induced nephropathy (CIN)”.
